# Measured values as given in patent US9416103B2, “Use of the aminoalkylindole JWH-073-M4 and related compounds as neutral CB1 receptor antagonists for the treatment of alcoholism, drug abuse, obesity, and obesity-related diseases” (The Board of Trustees of the University of Arkansas, priority 2012, dated 2016).
# Several values for one entry are separate records, joined by “and”; a condition that tells them apart may be missing. Identical values can stand only once. Like-named read-outs stand apart in the source and are kept apart here. Marks after values point to notes of the source that are not given here.
# Key:
# CB1Rs [1] = target: T1, CB1Rs (Mus musculus (Mouse), UniProt P47746); assay: Competition receptor binding with [3H]CP-55,940 in mouse brain homogenates
# Protocol: (§1) Mouse brain homogenates for in vitro assays were prepared as previously described. Briefly, whole brains were harvested from B6SJL mice, snap-frozen in liquid nitrogen and stored at −80° C. On the day membrane homogenates were to be prepared, brains were thawed on ice, then pooled in a 40 mL Dounce glass homogenizer and suspended in 5 volumes of ice cold homogenization buffer (50 mM HEPES, pH 7.4, 3 mM MgCl2, and 1 mM EGTA). Brains were then subjected to 10 complete strokes with an A pestle, followed by centrifugation at 40,000×g for 10 minutes at +4° C. Resulting supernatants were discarded, and the pellet was resuspended, homogenized and centrifuged similarly twice more, with supernatants being discarded. For the final resuspension and homogenization with a B pestle, ice-cold 50 mM HEPES was used in place of homogenization buffer, and homogenates were aliquoted and stored at −80° C. Protein concentrations of homogenates were determined using the BCA™ Protein Assay (Thermo Scientific, Rockford, Ill.).
# (§2) Competition receptor binding was performed as previously described. […] Reactions were terminated by rapid vacuum filtration through Whatman GF/B glass fiber filters, followed by five washes with ice-cold buffer (50 mM Tris, 0.05% BSA). Filters were immediately placed into 7 mL scintillation vials to which 4 mL of ScintiVerse™ BD Cocktail scintillation fluid (Fisher Scientific, Fair Lawn, N.J.) was added. Bound radioactivity was determined after overnight incubation at room temperature and shaking, by liquid scintillation spectrophotometry with an efficiency of 44% (Tri Carb 2100 TR Liquid Scintillation Analyzer, Packard Instrument Company, Meriden, Conn.). Specific binding is expressed as total binding minus non-specific binding, and is graphed for each data point as a percentage of specific binding occurring in the absence of any competitor.
# (§3) Curve fitting and statistical analyses for in vitro experiments were performed using GraphPad Prism™ version 5.0b (GraphPad Software Inc., San Diego, Calif.). The Cheng-Prusoff equation [45] was used to convert the experimental IC50 values obtained from competition receptor binding experiments to Ki values, a quantitative measure of receptor affinity. Non-linear regression for one-site competition was used to determine the IC50 for competition receptor binding. Curve fitting of concentration-effect curves via non-linear regression was also employed to determine the EC50 (a measure of potency) and Emax (a measure of efficacy) for [^35S]GTPγS concentration-effects experiments. […] Data are expressed as mean±SEM. The Student's t-test was used to determine statistical significance (P<0.05) between two groups, while a one-way ANOVA, followed by Tukey's Multiple Comparison post-hoc test, was used to determine statistical significance (P<0.05) between three or more groups.
# (§4) The prepared analogues were subjected to in vitro pharmacological testing, which included receptor binding and functional assays at both cannabinoid receptors. Initial receptor binding screens at both CB1Rs and CB2Rs were conducted for the analogues prepared.
# CB1Rs [2] = target: T1, CB1Rs; assay: [35S]GTPγS binding assay (G-protein activation) in mouse brain homogenates; assay type: biochemical; conditions: for [35S]GTPγS Binding, +O-2050 (1 μM): 1 μM cannabinoid (100 nM for CP-55,940) co-incubated with CB1R antagonist O-2050 1 μM; for [35S]GTPγS Binding, 10 μM: receptor-saturating concentration 10 μM
# Protocol: as §1
# [^35S]GTPγS binding was performed as previously described. Briefly, 25 μg of mouse brain homogenates were incubated for 30 minutes at 30° C. with 0.1 nM [^35S]GTPγS, 10 μM GDP, and either cannabinoid+/−antagonist, 10 μM unlabeled GTPγS (non-specific binding) or vehicle (total binding), in triplicate, in a volume of 1 mL of buffer containing 20 mM HEPES, 10 mM MgCl2, 100 mM NaCl, 20 units/L adenosine deaminase, 0.05% BSA and the appropriate DMSO (0.1%) and/or ethanol (<0.2%) vehicle. Assay buffer containing 100 mM KCl, instead of 100 mM NaCl, was used to increase basal G-protein activity in experiments examining inverse agonism. Reactions were terminated by quick vacuum filtration through Whatman GF/B glass fiber filters, followed by five washes with ice-cold buffer (20 mM HEPES, 0.05% BSA). Filters were immediately placed into 7 mL scintillation vials to which 4 mL of ScintiVerse™ BD Cocktail scintillation fluid was added. Bound radioactivity was determined after overnight incubation at room temperature and shaking by liquid scintillation spectrophotometry with an efficiency of 93% (Tri Carb 2100 TR Liquid Scintillation Analyzer, Packard Instrument Company, Meriden, Conn.). Specific binding is expressed as picomoles of [^35S]GTPγS bound per mg of protein.
# as §3
# hCB2Rs [3] = target: T2, hCB2Rs (Homo sapiens (Human), UniProt P34972); assay: Competition receptor binding with [3H]CP-55,940 in CHO-hCB2 cell homogenates; conditions: Table 3; read-out: hCB2R Ki
# Protocol: as §2, §4
# [4] = target: CB1Rs endogenously expressed in Neuro2A cells (Mus musculus (Mouse), UniProt P47746); assay: Adenylyl cyclase (AC) inhibition via CB1Rs endogenously expressed in Neuro2A cells; assay type: cell-based
# hCB2Rs [5] = target: T2, hCB2Rs; assay: Inhibition of forskolin-stimulated cAMP production (adenylyl cyclase) in intact CHO-hCB2R cells; assay type: cell-based; conditions: 10 μM, CHO cell transfected with hCB2 receptors; read-out: AC-inhibition at CB2Rs
# Protocol: Adenylyl cyclases are a family of membrane-bound enzymes that catalyze the intracellular production of the second messenger cAMP from ATP. Adenylyl cyclase activity is modulated by activated G-proteins: Gs-proteins stimulate activity, while Gi/o-proteins are inhibitory. Thus, agonists of G-protein coupled receptors (GPCRs) coupled to Gi/o-proteins, such as hCB2Rs, decrease cAMP production due to inhibition of adenylyl cyclase activity. In this assay, intact CHO-hCB2R cells are preincubated with [^3H]-adenine and treated with forskolin (10 or 30 μM) to stimulate adenylyl cyclase activity.
# A functional assay screen for the inhibition of adenylate cyclase (AC) activity was chosen as the subsequent assay. […] Reaching full-receptor occupancy, which is predicted to produce maximal efficacy, is desirable at 10 μM concentration of all the compounds was used.
# NIH Swiss mice [6] = assay: Locomotor activity by biotelemetry (cannabinoid tetrad); assay type: in vivo, mouse; conditions: 10 mg/kg, i.p.
# NIH Swiss mice [7] = assay: Core body temperature by biotelemetry (cannabinoid tetrad, hypothermia); assay type: in vivo, mouse; conditions: i.p.
# Protocol: Prior to surgery (see below), male NIH Swiss mice (Harlan Sprague Dawley Inc., Indianapolis, Ind.), weighing approximately 25-30 g, were housed 3 animals per Plexiglas® cage (15.24×25.40×12.70 cm) in a temperature-controlled room in an Association for Assessment and Accreditation of Laboratory Animal Care (AAALAC) accredited animal facility at the University of Arkansas for Medical Sciences. Room conditions were maintained at 22±2° C. and 45-50% humidity. Lights were set to a 12-h light/dark cycle. Animals were fed Lab Diet rodent chow (Laboratory Rodent Diet #5001, PMI Feeds, Inc., St. Louis, Mo.) and water ad libitum throughout testing Animals were acclimated to the laboratory environment for ˜7 days prior to experiments, and to the biotelemetry chambers for at least 2 hours prior to initiation of data acquisition. All test conditions used groups of 5 or 6 mice, and all mice were drug-naïve (with the exception of surgical anesthetics) prior to testing.
# Cannabinoid effects on core temperature and locomotor activity were measured using surgically-implanted biotelemetry probes. Following appropriate anesthetization with ketamine (100 mg/kg, intraperitoneal [i.p.]) and xylazine (10 mg/kg, i.p.), the abdominal area of each mouse was shaved and sanitized with iodine swabs. A rostral-caudal cut approximately 1.5 cm in length was made with skin scissors, providing access to the intraperitoneal cavity. A cylindrical glass-encapsulated radiotelemetry probe (model ER-4000 E-Mitter, Mini Mitter Co., Inc., Bend, Oreg.) was then inserted, and the incision was closed using absorbable 5-0 chromic gut suture material. At least 7 days were imposed between surgery and experimental observation of cannabinoid effects to allow incisions to heal and mice to recover normal body weights. Following surgery, implanted mice were individually housed in Plexiglas® mouse cages (15.24×25.40×12.70 cm) for the duration of all temperature and locomotor activity experiments Implanted transmitters produced activity- and temperature-modulated signals that were transmitted to a receiver (model ER-4000 Receiver, Mini Mitter Co., Inc., Bend, Oreg.) underneath each mouse cage. Receivers were housed in light- and sound-attenuating cubicles (Med Associates model ENV-022MD, St. Albans, Vt.) equipped with exhaust fans, which further masked ambient laboratory noise. On experimental days, mice were weighed, marked, and returned to their individual cages during which at least 1 hr of baseline data were collected. […]. Mice were then placed into a new cage with fresh bedding to stimulate exploratory behavior. Temperature and locomotor activity data were collected at regular 5-min intervals and processed simultaneously by the Vital View data acquisition system (Mini Mitter Co., Inc., Bend, Oreg.) for at least 10 hrs.
# For core body temperature experiments, the area under the curve (AUC) was calculated using a trapezoidal rule from 0-500 minutes, and statistical significance (P<0.05) was determined using a one-way ANOVA, followed by Tukey's HSD post-hoc test. For locomotor activity, total locomotor counts were summed from 0-800 minutes. Because locomotor, analgesia and catalepsy data were not normally distributed, Kruskal-Wallis one-way ANOVA on ranks were performed, and all pair-wise comparisons were then made using the Tukey's HSD tests. In vivo statistical calculations were performed using SigmaStat 3 (Systat Software, Inc., San Jose, Calif.).
# [8] = mouse brain homogenates, 0.2 nM [3H]CP-55,940, read-out: [3H]CP binding Ki
compound,measurement,setting,value
CCCCn1cc(C(=O)c2cccc3ccccc23)c2ccc(O)cc21 [Compound M3],Ki,"CB1Rs [1]; mouse brain homogenates, 0.2 nM [3H]CP-55,940, read-out: CB1R affinity (Ki)",1280 ± 470 nM
same,"[35S]GTPγS Binding, 1 μM",CB1Rs [2],0.04 ± 0.00 pmol/mg
same,"[35S]GTPγS Binding, +O-2050 (1 μM)",CB1Rs [2],0.02 ± 0.01 pmol/mg
same,"[35S]GTPγS Binding, 10 μM",CB1Rs [2],"0.11±0.02 pmole/mg and 0.11 ± 0.02^a,b pmole/mg"
COc1cccc2c(C(=O)c3cccc4ccccc34)cn(CCN3CCOCC3)c12,melting point,,149 to 152 °C
"CCCCn1cc(C(=O)Cc2ccc(F)cc2)c2cccc(OC)c21 [TV-5-129, 1-(1-butyl-7-methoxy-1H-indol-3-yl)-2-(4-fluorophenyl)ethanone]",Ki,"CB1Rs [1]; Table 3, read-out: mCB1R Ki",387 ± 77 nM
same,Ki,hCB2Rs [3],281 nM
same,inhibition at 10 µM,"[4]; N2a, 10 μM, Neuro2A cells",-4%
same,inhibition at 10 µM,hCB2Rs [5],22.1%
CCCCn1cc(-c2cccc3ccccc23)c2cccc(OC)c21,melting point,,74 to 76 °C
CCCCn1cc(C(=O)c2cccc3ccccc23)c2c(O)cccc21 [Compound M1],locomotor activity,NIH Swiss mice [6],reduction of locomotor activity similar to that observed with administration of JWH-073
same,Ki,CB1Rs [1]; [8],14.1 ± 3.5 nM
same,minimum core body temperature recorded,NIH Swiss mice [7]; 10 mg/kg,30.32±0.66 °C
same,time to maximal core body temperature reduction,NIH Swiss mice [7]; 10 mg/kg,58.00 ± 4.64 min
same,"[35S]GTPγS Binding, 1 μM",CB1Rs [2],0.17 ± 0.01 pmol/mg
same,"[35S]GTPγS Binding, +O-2050 (1 μM)",CB1Rs [2],0.07 ± 0.01 pmol/mg
same,[35S]GTPγS Binding Emax,"CB1Rs [2]; concentration-effect, mouse brain homogenates",0.14 ± 0.01^b pmole/mg
same,EC50,"CB1Rs [2]; concentration-effect, mouse brain homogenates, read-out: [35S]GTPγS Binding EC50",113 ± 29.2 nM
same,"[35S]GTPγS Binding, 10 μM",CB1Rs [2],0.14±0.01 pmole/mg and 0.14 ± 0.01^a pmole/mg
CCCCn1cc(C(=O)Cc2cccc3ccccc23)c2cccc(OC)c21,melting point,,110 to 113 °C
CCCCn1cc(C(=O)Cc2ccccc2)c2cccc(OC)c21,melting point,,65 to 68 °C
CCCCn1cc(C(=O)Cc2ccc(OC)cc2)c2cccc(OC)c21,melting point,,72 to 74 °C
"O=C(O)CCCn1cc(C(=O)c2cccc3ccccc23)c2ccccc21 [Compound M6, 4-(3-(1-naphthoyl)-1H-indole-1-yl)-1-butanoic acid, reference compound]","displacement of [3H]CP-55,940 specific binding",CB1Rs [1]; concentrations as high as 10 μM,less than 10%
"CC1=CC[C@@H]2[C@@H](C1)c1c(O)cc(CC#CCCCNS(C)(=O)=O)cc1OC2(C)C [Compound O-2050, reference compound]",antagonism of AC-inhibition produced by the CB1R full agonist JWH-073,[4]; 1 μM concentration,antagonized AC-inhibition
CCCCCn1cc(C(=O)c2cccc3ccccc23)c2ccccc21 [JWH-018],maximal decrease in core body temperature to,"NIH Swiss mice [7]; JWH-018 3 mg/kg, alone",30.28+/−0.71 °C
same,EC50,"CB1Rs [2]; JWH-018 alone, read-out: EC50 of JWH-018 for G-protein activation, alone",8 nM
same,EC50,"CB1Rs [2]; read-out: EC50 of JWH-018 in the presence of M4, + M4 1 μM",178 nM
same,EC50,"CB1Rs [2]; read-out: EC50 of JWH-018 in the presence of M4, + M4 3 μM",263 nM
same,EC50,"CB1Rs [2]; read-out: EC50 of JWH-018 in the presence of M4, + M4 10 μM",1560 nM
CCCCn1cc(C(=O)Cc2ccccc2F)c2cccc(OC)c21,melting point,,86 to 88 °C
O=C(c1cccc2ccccc12)c1cn(CCCCO)c2ccccc12 [Compound M5],Ki,CB1Rs [1]; [8],224 ± 9 nM
same,"[35S]GTPγS Binding, 1 μM",CB1Rs [2],0.12 ± 0.00 pmol/mg
same,"[35S]GTPγS Binding, +O-2050 (1 μM)",CB1Rs [2],0.05 ± 0.01 pmol/mg
same,"[35S]GTPγS Binding, 10 μM",CB1Rs [2],0.16±0.02 pmole/mg and 0.16 ± 0.02^a pmole/mg
